Measurements published in patent US20040142379A1, “Affinity fishing for ligands and proteins receptors” (Carlsberg Research Laboratory, priority 2003, published 2004).
Entries after “also recorded” stand apart in the source; their conditions may differ.

Assays:
[1] = system: Phenylephrine Treated (Hyperthrophic) Myocytes protein mixture; test: Solid phase screening of Library 1 with labeled myocyte proteins; on-bead affinity isolation and peptide mass fingerprinting of bound protein (PE-induced); assay type: binding, neonatal Wistar rats; settings: proteins bound to resin-bound Library 1 ligand, primarily present in PE-treated hypertrophied cells; LA low abundance, M transmembrane or partially embedded, MA membrane associated
Procedure: (§1) Myocytes were prepared from 1 to 5 day old neonatal Wistar rats (University of Copenhagen) according to literature procedure described in Busk et al., 2002, Cardiovasc. Res., 56: 64-75 and plated into eight P10 culture plates at 6 million cells/plate. Cells were grown at 37° C. and 5% CO2 humidity in serum free Modified Eagle Media (MEM). After 2 days, the adherent cells were washed at room temperature with serum free MEM (2×) and fresh MEM was added. To four of the plates, 10 μM phenylephrine (PE) was also added. Cells were grown for two more days and then harvested as described below.
(§2) Protein was extracted from myocytes prepared as described above for Example 9, using a new procedure modified from existing protocols, primarily: Arnott, et al., 1998, Anal. Biochem. 258: 1-18. The media was removed from plates and adhered cells were treated for 10 minutes with ice cold phosphate buffer (0.25 mL, 10 mM, pH 7.5, augmented with 0.15 M NaCl 60 mM Benzamidine HCl, 5 mM EDTA, 10 μg/mL E-64, 10 μg/mL Leupeptin, 10 μg/mL Pepstatin A, and 1 mM PMSF). The cells were scraped off the plates and then lysed (on ice) in a sonicator (2×) using 10 seconds off/10 seconds on cycles.
(§3) The resulting suspension was augmented with CHAPS, DTT, and urea to a final concentration of CHAPS (1% w/v), DTT (5 mM), and urea (8 M). After 10-15 minutes on ice, the solution was centrifuged for 10 minutes at 15,000 rpm at 4° C. The supernatant was removed and protein content quantified using the NanoOrange Protein test (Molecular Probes, Eugene, Oreg.): Total protein recovered: 70.5 μg for PE-treated cells and 60 μg for basal cells.
(§4) Fluorescent dye Oregon Green 514 (OR) (Molecular Probes) was used to label the healthy/basal cells while Rhodamine Red (RR) (Molecular Probes) was used to label the PE-treated cells. The labeling procedures were carried out according to the manufacturer's protocol. The protein solutions (0.25 mL, 50.4 μg for PE cells and 0.25 mL, 42.8 μg for basal cells) were dialyzed against a solution of 10 mM phosphate buffer, 0.15 M NaCl, pH 7.5 and then 1 M NaHCO3 (0.025 mL) added to a final pH of 8.5. 10 μL of dye in dry DMF (10 mg/mL) was added and the sample stirred at room temperature for 2 hours. The protein solution was dialyzed extensively against 10 mM phosphate buffer, 0.15 M NaCl, pH 7.5, to remove excess dye.
(§5) Ligand library 1 (200 mg), prepared as described for Example 5, was transferred to a syringe fitted with a stop-valve and the ligand-beads were washed for 10 minutes (3×) with 10 mM phosphate buffer, pH 6.8, supplemented with 0.15 M NaCl, 1 mM Ca^2+, 1 mM Zn^2+, 1 mM Mn^2+, 1 mM Cu^2+, and 1 mM Mg^2+ (3 mL). The ligand-beads were treated with a 1% BSA solution for 30 minutes, then washed with buffer (1×). A mixture of labeled myocyte proteins, including both PE-induced protein (138 μL, 40 μg) and basal protein (167 μL, 40 μg) obtained as described above for Example 11, was prepared in 1.2 mL buffer, and added to the ligand library in the syringe. The proteins and ligand library were incubated at room temperature for 16 hours. The library was then washed with buffer for 5 minutes then with water for 3×5 minutes. The library was examined under a fluorescence microscope and brightly fluorescent red, green, and yellow beads (yellow indicative of both dyes red and green binding; the majority of the beads) were present, as well as unlabelled beads. The fluorescent beads were parted and retained for analysis.
(§6) The fluorescent ligand library beads containing bound myocyte protein obtained as described in Example 15, were sorted using a COPAS (250) NF Bead Sorter (Union Biometrica, Somerville, Mass.). Beads emitting fluorescence of only one color contain proteins from one physical state, proteins expressed only in the PE-induced hypertrophic state (red) or proteins expressed only in the basal state (green).

[2] = system: Normal Myocytes (basal) protein mixture; test: Solid phase screening of Library 1 with labeled myocyte proteins; on-bead affinity isolation and peptide mass fingerprinting of bound protein (basal); assay type: binding, neonatal Wistar rats; settings: proteins bound to resin-bound Library 1 ligand, primarily present in basal cells; LA low abundance, M transmembrane or partially embedded, MA membrane associated; parentheses = possible complexes
Procedure: as §1, §2, §3, §4, §5, §6

[3] = system: isoleucine tRNA synthetase; settings: approved antibiotic; Merck Manual; cited from earlier work
Myocytes = test: Myocyte culture with phenylephrine (in vitro model of hypertrophy); assay type: cell-based, neonatal Wistar rats; settings: 10 μM phenylephrine, grown two more days, serum free MEM
Procedure: as §1
Using the procedures described above for Examples 1-5, the ligand Library 1 (containing unnatural amino acids) as described for Example 5, myocyte proteins prepared and labeled as described for Examples 9 and 11, screening as described for Example 15, sorting and identifying as described for Examples 18 to 21, digestion and protein identification as described for Examples 25-31, previously unknown, specific, differential ligand-protein binding pairs were identified for the normal (basal) myocyte protein mixtures and the phenylephrine (PE)-treated myocyte proteins screened against the ligands of Library 1. Phenylephrine was used to provide an in vitro model of hypertrophy, for example, cardiac hypertrophy (Arnott et al., 1998, Anal. Biochem., 1:1-18).

Phosphomannose isomerase = target: T1, Phosphomannose isomerase (Candida albicans, UniProt P34948); settings: in Candida; Wells et al, 1996; cited from earlier work
T1 sequence (P34948 1-441): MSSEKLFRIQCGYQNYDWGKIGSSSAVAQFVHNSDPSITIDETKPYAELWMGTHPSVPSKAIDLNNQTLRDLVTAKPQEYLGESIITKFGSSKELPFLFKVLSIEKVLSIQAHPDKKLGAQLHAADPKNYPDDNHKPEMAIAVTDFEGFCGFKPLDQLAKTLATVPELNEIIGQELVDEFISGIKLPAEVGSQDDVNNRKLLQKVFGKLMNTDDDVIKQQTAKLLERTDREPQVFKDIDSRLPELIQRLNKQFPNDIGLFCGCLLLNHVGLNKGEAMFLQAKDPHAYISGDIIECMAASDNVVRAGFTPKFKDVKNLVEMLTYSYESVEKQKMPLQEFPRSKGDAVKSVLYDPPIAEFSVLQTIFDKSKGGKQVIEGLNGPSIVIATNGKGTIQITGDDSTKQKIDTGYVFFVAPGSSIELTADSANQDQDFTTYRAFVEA

Compound	Identified Protein(s) [1]	further results
Abi-Phe-Abi-Phe-Che-Tyr	Cathepsin E; Ribosomal proteins, Actin binding protein, Amino acid; also recorded: transferase	–
Pya-Gua-Abi-Asp-Abi-Tyr	SPTR (M); Ribosomal proteins (60s); (Calcium channel (M); Slo channel; also recorded: protein isoform (M); Potassium conductance calcium activated channel; also recorded: (M); Symporter (M;) NADH dehydrogenase; Malate dehydrogenase; N-; also recorded: Acetyl transferase; Mitochondrial associated protein; G-protein receptor; also recorded: used for signaling (LA, M)	–
Pya-Gua-Pip-Acc-Phe-Pip	–	Identified Protein(s) [2]: NADH dehydrogenase; ATP binding component (M); Myosin; Histone; also recorded: associated proteins (M)
Pal-Abi-Gly-Gly-Abi-His	Ribosomal protein (60s + 40s); Low density lipoprotein receptor	–
Phe-Gua-Pal-Tyr-Gua-Tyr	Glucose-6-Phosphatase; Succinate dehydrogenase; ARL-interacting; also recorded: protein (M); SPTR (M), Nucleic acid binding protein	–
Pip-Pal-Pal-Phe-Pya-Pip	–	Identified Protein(s) [2]: Myosin light chain kinase (LA, MA); (Tyrosine phosphatase (LA, M);; also recorded: ATP Synthase component (M)) Gluthathione S-transferase; Cytochrome; also recorded: P450 (M); Ribosomal proteins (60s); SPTR (M))
C/C(=C\C(=O)OCCCCCCCCC(=O)O)C[C@@H]1OC[C@H](C[C@@H]2O[C@H]2[C@@H](C)[C@H](C)O)[C@@H](O)[C@H]1O [Mupirocin]	–	enzyme inhibition [3]: inhibits
Abi-Thr-Hyp-Hyp-His-?-	Phosphofructokinase; Selenium binding protein; (Serine arginine rich; also recorded: protein kinase (LA); Guanylate kinase (LA), Protein tyrosine kinase; also recorded: (LA)); Alkaline phosphatase; Symporter (M); SPTR (M); WAP-protein;; also recorded: GTP Hydrolase, Actin filament	–
Phe-Thr-Pya-Pip-Asp-His	–	Identified Protein(s) [2]: (Sodium channel (M); Chloride channel (M)) Troponin; Ribosomal; also recorded: proteins L26; Serine hydroxy methyl transferase; Zn Finger protein (MA);; also recorded: Adherin aminotransferase (M); (Gluthathione transferase; Gluthathione; also recorded: peroxidase;)
CNC[C@H](O)c1cccc(O)c1 [PE, phenylephrine]	–	cell size at time of harvest (Myocytes): significantly enlarged
Phe-Abi-Pal-Hyp-Thr-Hyp	Zinc finger associated protein; Ribosomal proteins; Protein phosphatase and (LA)	–
Nc1ccc(S(=O)(=O)Nc2ncccn2)cc1 [sulfadiazene]	–	enzyme inhibition (Phosphomannose isomerase): inhibited
